PubChem BioAssay (NCI)
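Results reflect a 48-hour exposure of cells in 96-well plates to compound at five concentrations. GI50 is the concentration that inhibits growth by half. TGI: total growth inhibition.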

Legend:
Assay in all cases: NCI anticancer screen, dose series, 48 h
NCI-H522 lung = tested on: NCI-H522 lung
KM12 colon = tested on: KM12 colon
HS 578T breast = tested on: HS 578T breast
M14 melanoma = tested on: M14 melanoma
PC-3 prostate = tested on: PC-3 prostate
MOLT-4 leukemia = tested on: MOLT-4 leukemia
A498 renal = tested on: A498 renal
OVCAR-3 ovarian = tested on: OVCAR-3 ovarian
NCI-H23 lung = tested on: NCI-H23 lung
A549 NSCLC = tested on: A549 NSCLC
U251 CNS = tested on: U251 CNS
DU-145 prostate = tested on: DU-145 prostate
HCT-15 colon = tested on: HCT-15 colon
OVCAR-5 ovarian = tested on: OVCAR-5 ovarian
LOX IMVI melanoma = tested on: LOX IMVI melanoma
SF-295 CNS = tested on: SF-295 CNS
MALME-3M melanoma = tested on: MALME-3M melanoma
NCI/ADR-RES ovarian = tested on: NCI/ADR-RES ovarian
OVCAR-8 ovarian = tested on: OVCAR-8 ovarian
CAKI-1 renal = tested on: CAKI-1 renal
ACHN renal = tested on: ACHN renal
786-0 renal = tested on: 786-0 renal
SW-620 colon = tested on: SW-620 colon
RPMI-8226 leukemia = tested on: RPMI-8226 leukemia
MDA-MB-231 breast = tested on: MDA-MB-231 breast
NCI-H460 lung = tested on: NCI-H460 lung
OVCAR-4 ovarian = tested on: OVCAR-4 ovarian
HOP-92 NSCLC = tested on: HOP-92 NSCLC
HCT-116 colon = tested on: HCT-116 colon
UACC-62 melanoma = tested on: UACC-62 melanoma
SN12C renal = tested on: SN12C renal
HCC-2998 colon = tested on: HCC-2998 colon
MCF7 breast = tested on: MCF7 breast
RXF 393 renal = tested on: RXF 393 renal
HT29 colon = tested on: HT29 colon
SK-MEL-2 melanoma = tested on: SK-MEL-2 melanoma
T-47D breast = tested on: T-47D breast
COLO 205 colon = tested on: COLO 205 colon
EKVX NSCLC = tested on: EKVX NSCLC
IGROV1 ovarian = tested on: IGROV1 ovarian
UACC-257 melanoma = tested on: UACC-257 melanoma
K-562 leukemia = tested on: K-562 leukemia
SK-MEL-5 melanoma = tested on: SK-MEL-5 melanoma
HOP-62 NSCLC = tested on: HOP-62 NSCLC
TK-10 renal = tested on: TK-10 renal
SNB-19 CNS = tested on: SNB-19 CNS
UO-31 renal = tested on: UO-31 renal
MDA-MB-435 = tested on: MDA-MB-435
BT-549 breast = tested on: BT-549 breast
SNB-75 CNS = tested on: SNB-75 CNS
SR leukemia = tested on: SR leukemia
SF-539 CNS = tested on: SF-539 CNS
SK-MEL-28 melanoma = tested on: SK-MEL-28 melanoma
SF-268 CNS = tested on: SF-268 CNS
NCI-H226 lung = tested on: NCI-H226 lung

Work on `O=S(=O)(NC1=NCCN1C(=S)SN1CCn2c1nsc2=S)c1ccc(Cl)cc1` yielded a GI50 (NCI-H522 lung) of 4.74 µM, a TGI (NCI-H522 lung) of 18.4 µM and a GI50 (KM12 colon) of 15.9 µM. For the same compound, the TGI (KM12 colon) was 33.6 µM, the GI50 (HS 578T breast) was 14 µM and the TGI (HS 578T breast) was 75.2 µM. It also gave a GI50 (M14 melanoma) of 12.9 µM, a TGI (M14 melanoma) of 32.5 µM and a GI50 (PC-3 prostate) of 7.54 µM. The TGI (PC-3 prostate) was 22.1 µM, the GI50 (MOLT-4 leukemia) was 3.56 µM and the TGI (MOLT-4 leukemia) was 21.7 µM. The GI50 (A498 renal) was 17.4 µM, the TGI (A498 renal) was 42.2 µM and the GI50 (OVCAR-3 ovarian) was 2.54 µM. The TGI (OVCAR-3 ovarian) was 12.2 µM, the GI50 (NCI-H23 lung) was 14.4 µM and the TGI (NCI-H23 lung) was 32.6 µM. The GI50 (A549 NSCLC) was 12.8 µM, the TGI (A549 NSCLC) was 37.8 µM and the GI50 (U251 CNS) was 10.9 µM. The TGI (U251 CNS) was 24.4 µM, the GI50 (DU-145 prostate) was 7.9 µM and the TGI (DU-145 prostate) was 30.9 µM. It also gave a GI50 (HCT-15 colon) of 11.9 µM, a TGI (HCT-15 colon) of 28.2 µM and a GI50 (OVCAR-5 ovarian) of 17.9 µM. It also gave a TGI (OVCAR-5 ovarian) of 36.5 µM, a GI50 (LOX IMVI melanoma) of 3.84 µM and a TGI (LOX IMVI melanoma) of 15.7 µM. The GI50 (SF-295 CNS) was 16.7 µM, the TGI (SF-295 CNS) was 34.8 µM and the GI50 (MALME-3M melanoma) was 4.75 µM. The TGI (MALME-3M melanoma) was 18.1 µM, the GI50 (NCI/ADR-RES ovarian) was 23.1 µM and the TGI (NCI/ADR-RES ovarian) was 60.8 µM. The GI50 (OVCAR-8 ovarian) was 7.13 µM, the TGI (OVCAR-8 ovarian) was greater than 100 µM and the GI50 (CAKI-1 renal) was 6.49 µM. The TGI (CAKI-1 renal) was 27.7 µM, the GI50 (ACHN renal) was 6.05 µM and the TGI (ACHN renal) was 18.6 µM. It also gave a GI50 (786-0 renal) of 16.6 µM, a TGI (786-0 renal) of 32.4 µM and a GI50 (SW-620 colon) of 4.42 µM. It also gave a TGI (SW-620 colon) of 17.9 µM, a GI50 (RPMI-8226 leukemia) of 4.33 µM and a TGI (RPMI-8226 leukemia) greater than 100 µM. For the same compound, the GI50 (MDA-MB-231 breast) was 4.06 µM, the TGI (MDA-MB-231 breast) was 19.4 µM and the GI50 (NCI-H460 lung) was 10.2 µM. For the same compound, the TGI (NCI-H460 lung) was 38.6 µM, the GI50 (OVCAR-4 ovarian) was 9.6 µM and the TGI (OVCAR-4 ovarian) was 44.2 µM. For the same compound, the GI50 (HOP-92 NSCLC) was 11.4 µM, the TGI (HOP-92 NSCLC) was 25.2 µM and the GI50 (HCT-116 colon) was 5.15 µM. It also gave a TGI (HCT-116 colon) of 21.1 µM, a GI50 (UACC-62 melanoma) of 3.68 µM and a TGI (UACC-62 melanoma) of 13.6 µM. The GI50 (SN12C renal) was 8.56 µM, the TGI (SN12C renal) was 22.5 µM and the GI50 (HCC-2998 colon) was 11 µM. It also gave a TGI (HCC-2998 colon) of 23.6 µM, a GI50 (MCF7 breast) of 2.78 µM and a TGI (MCF7 breast) of 17.1 µM. The GI50 (RXF 393 renal) was 3.09 µM, the TGI (RXF 393 renal) was 34.4 µM and the GI50 (HT29 colon) was 7.34 µM. It also gave a TGI (HT29 colon) greater than 100 µM, a GI50 (SK-MEL-2 melanoma) of 5.93 µM and a TGI (SK-MEL-2 melanoma) of 22.7 µM. It also gave a GI50 (T-47D breast) of 5.38 µM, a TGI (T-47D breast) of 23.3 µM and a GI50 (COLO 205 colon) of 4.36 µM. It also gave a TGI (COLO 205 colon) of 14.8 µM, a GI50 (EKVX NSCLC) of 13.2 µM and a TGI (EKVX NSCLC) of 30.6 µM. The GI50 (IGROV1 ovarian) was 10.2 µM, the TGI (IGROV1 ovarian) was 23.4 µM and the GI50 (UACC-257 melanoma) was 10.8 µM. It also gave a TGI (UACC-257 melanoma) of 29.4 µM, a GI50 (K-562 leukemia) of 5.21 µM and a TGI (K-562 leukemia) greater than 100 µM. It also gave a GI50 (SK-MEL-5 melanoma) of 8.99 µM, a TGI (SK-MEL-5 melanoma) of 21.7 µM and a GI50 (HOP-62 NSCLC) of 19.5 µM. The TGI (HOP-62 NSCLC) was 41 µM, the GI50 (TK-10 renal) was 12.3 µM and the TGI (TK-10 renal) was 25.6 µM. For the same compound, the GI50 (SNB-19 CNS) was 14.5 µM, the TGI (SNB-19 CNS) was 36.4 µM and the GI50 (UO-31 renal) was 2.28 µM. It also gave a TGI (UO-31 renal) of 5.92 µM, a GI50 (MDA-MB-435) of 3.02 µM and a TGI (MDA-MB-435) of 10.5 µM. It also gave a GI50 (BT-549 breast) of 2.28 µM, a TGI (BT-549 breast) of 6.48 µM and a GI50 (SNB-75 CNS) of 12.3 µM. For the same compound, the TGI (SNB-75 CNS) was 35.6 µM, the GI50 (SR leukemia) was 2.4 µM and the TGI (SR leukemia) was 6.51 µM. It also gave a GI50 (SF-539 CNS) of 1.47 µM, a TGI (SF-539 CNS) of 3.12 µM and a GI50 (SK-MEL-28 melanoma) of 4.85 µM. For the same compound, the TGI (SK-MEL-28 melanoma) was 20.7 µM, the GI50 (SF-268 CNS) was 6.5 µM and the TGI (SF-268 CNS) was 28 µM. For the same compound, the GI50 (NCI-H226 lung) was 5.77 µM and the TGI (NCI-H226 lung) was 20.7 µM.
